Measured values reported in patent publication US6914064B2, “1,4-Disubstituted piperazine derivatives useful as uro-selective α1-adrenoceptor blockers” (Ranbaxy Laboratories Limited, priority 2000, dated 2005).
pKi: −log10 of the molar value.

What was measured:
[1] = molecular target: T1, α1A adrenoceptor (Rattus norvegicus, UniProt P43140); assay: Receptor binding assay, displacement of [3H]prazosin, rat submaxillary membranes; settings: for pKi: [3H]prazosin displacement, rat submaxillary membranes, read-out: α1A (Rat submaxillary) Ki; for Selectivity α1B/α1A: ratio of Ki α1B (rat liver) / α1A (rat submaxillary)
T1 construct: from tissue; host or cells: rat submaxillary gland membranes
T1 sequence (P43140 1-466): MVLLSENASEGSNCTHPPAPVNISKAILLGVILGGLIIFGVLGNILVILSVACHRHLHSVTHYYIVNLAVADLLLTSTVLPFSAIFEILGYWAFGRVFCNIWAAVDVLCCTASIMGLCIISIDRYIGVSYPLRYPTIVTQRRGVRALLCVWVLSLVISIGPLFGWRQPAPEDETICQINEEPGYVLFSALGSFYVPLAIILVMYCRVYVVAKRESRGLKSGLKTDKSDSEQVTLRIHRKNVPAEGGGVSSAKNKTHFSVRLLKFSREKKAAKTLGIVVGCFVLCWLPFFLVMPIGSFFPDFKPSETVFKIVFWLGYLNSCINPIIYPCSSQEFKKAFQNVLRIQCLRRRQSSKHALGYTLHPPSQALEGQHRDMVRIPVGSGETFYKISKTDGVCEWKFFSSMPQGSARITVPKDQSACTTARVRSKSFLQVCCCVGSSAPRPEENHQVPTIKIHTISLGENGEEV
Procedure: Receptor binding assays were performed using native α-adrenoceptors.
(§1) Submaxillary glands were isolated immediately after sacrifice. The liver was perfused with buffer (Tris HCl 50 mM, NaCl 100 mM, 10 mM EDTA pH 7.4). The tissues were homogenised in 10 volumes of buffer (Tris HCl 50 mM, NaCl 100 mM, EDTA 10 mM, pH 7.4). The homogenate was filtered through two layers of wet gauze and filtrate was centrifuged at 500 g for 10 min. The supernatant was subsequently centrifuged at 40,000 g for 45 min. The pellet thus obtained was resuspended in the same volume of assay buffer (Tris HCl 50 mM, EDTA 5 mM, pH 7.4) and were stored at −70° C. until the time of assay.
(§2) The membrane homogenates (150-250 μg protein) were incubated in 250 μl of assay buffer (Tris HCl 50 mM, EDTA 5 mM, pH 7.4) at 24-25° C. for 1 h. Non-specific binding was determined in the presence of 300 nM prazosin. The incubation was terminated by vacuum filtration over GF/B fibre filters. The filters were then washed with ice cold 50 mM Tris HCl buffer (pH 7.4). The filtermats were dried and bound radioactivity retained on filters was counted.The IC50 & Kd were estimated by using the non-linear curve fitting program using G Pad Prism software.

[2] = molecular target: T2, α1B adrenoceptor (Rattus norvegicus, UniProt P15823); assay: Receptor binding assay, displacement of [3H]prazosin, rat liver membranes; settings: [3H]prazosin displacement, rat liver membranes; read-out: α1B (Rat liver) Ki
T2 construct: from tissue; host or cells: rat liver membranes
T2 sequence (P15823 1-515): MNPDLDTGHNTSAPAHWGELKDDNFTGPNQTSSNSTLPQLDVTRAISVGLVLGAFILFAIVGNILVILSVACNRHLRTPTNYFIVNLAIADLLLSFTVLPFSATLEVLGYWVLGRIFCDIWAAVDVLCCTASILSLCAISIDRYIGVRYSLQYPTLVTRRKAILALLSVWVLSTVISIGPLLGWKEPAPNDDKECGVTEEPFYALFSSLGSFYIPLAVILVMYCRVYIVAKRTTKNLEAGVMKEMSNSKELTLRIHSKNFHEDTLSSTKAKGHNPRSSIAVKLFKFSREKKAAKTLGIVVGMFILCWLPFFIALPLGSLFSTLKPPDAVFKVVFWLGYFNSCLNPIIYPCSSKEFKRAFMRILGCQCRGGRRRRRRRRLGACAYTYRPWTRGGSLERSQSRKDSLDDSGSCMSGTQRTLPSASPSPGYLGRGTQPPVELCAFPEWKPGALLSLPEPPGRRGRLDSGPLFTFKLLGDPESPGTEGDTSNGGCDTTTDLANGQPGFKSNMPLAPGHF
Procedure: Receptor binding assays were performed using native α-adrenoceptors. The affinity of different compounds for α1A and α1B adrenoceptor subtypes was evaluated by studying their ability to displace specific [^3H]prazosin binding from the membranes of rat submaxillary and liver respectively (Michel et al, Br J Pharmacol, 98, 883-889 (1989)). The binding assays were performed according to U'Prichard et al. (Eur J Pharmacol, 50:87-89 (1978)) with minor modifications.
as §1
as §2, with “software. The value of inhibition constant Ki was calculated from competitive binding studies by using Cheng & Prusoff equation (Cheng & Prusoff, Biochem Pharmacol, 1973,22: 3099-3108), Ki=IC50/(1+L/Kd) where L is the concentration of [^3H]prazosin used in the particular experiment (Table I).” for “software.”

[3] = molecular target: T3, α1A adrenoceptor (prostate) (Rattus norvegicus, UniProt P43140); assay: In vitro functional study, antagonism of phenylepinephrine-induced contraction of prostate; format: biochemical; settings: for Selectivity α1A/α1B / Selectivity α1A/α1D: functional assays, from pKB values; for Kb: prostate, phenylepinephrine, tested compound at 0.1, 1 and 10 mM, read-out: α Adrenoceptor Subtype (pKB) α1A (converted)
T3 construct: from tissue; host or cells: isolated prostate tissue
T3 sequence (P43140 1-466): T1 sequence (P43140 1-466)
Source text: (§3) In order to study selectivity of action of these compounds towards different α-adrenoceptor subtypes, the ability of these compounds to antagonise α1-adrenoceptor agonist induced contractile response on aorta (α1Dprostate (α1A and spleen (α1B was studied. Aorta and spleen tissues were isolated from urethane anaesthetised (1.5 gm/kg) male wistar rats. Isolated tissues were mounted in organ bath containing Krebs Henseleit buffer of following composition (mM): NaCl 118; KCl 4.7; CaCl2 2.5; MgSO4. 7H2O 1.2; NaHCO3 25; KH2PO41.2; glucose 11.5. Buffer was maintained at 37° C. and aereated with a mixture of 95% O2 and 5% CO2. A resting tension of 2 g (aorta) or 1 g (spleen and prostate)was applied to tissues. Contractile response was monitored using a force displacement transducer and recorded on chart recorders. Tissues were allowed to equilibrate for 2 hours. At the end of equilibration period, concentration response curves to norepinephrine (aorta) and phenylepinephrine (spleen and prostate) were obtained in absence and presence of tested compound (at concentration of 0.1,1 and 10 mM). Antagonist affinity was calculated and expressed as pKB vales in Table II.

[4] = molecular target: T4, α1B adrenoceptor (spleen) (Rattus norvegicus, UniProt P15823); assay: In vitro functional study, antagonism of phenylepinephrine-induced contraction of spleen; format: biochemical; settings: tested compound at 0.1, 1 and 10 mM, read-out: α Adrenoceptor Subtype (pKB) α1B (converted)
T4 construct: Isolated tissues were mounted in organ bath containing Krebs Henseleit buffer; from tissue; host or cells: isolated spleen of male wistar rats
T4 sequence (P15823 1-515): T2 sequence (P15823 1-515)
Source text: as §3

[5] = molecular target: T5, α1D adrenoceptor (aorta) (Rattus norvegicus, UniProt P23944); assay: In vitro functional study, antagonism of norepinephrine-induced contraction of aorta; format: biochemical; settings: tested compound at 0.1, 1 and 10 mM, read-out: α Adrenoceptor Subtype (pKB) α1D (converted)
T5 construct: Isolated tissues were mounted in organ bath containing Krebs Henseleit buffer; from tissue; host or cells: isolated aorta of male wistar rats
T5 sequence (P23944 1-561): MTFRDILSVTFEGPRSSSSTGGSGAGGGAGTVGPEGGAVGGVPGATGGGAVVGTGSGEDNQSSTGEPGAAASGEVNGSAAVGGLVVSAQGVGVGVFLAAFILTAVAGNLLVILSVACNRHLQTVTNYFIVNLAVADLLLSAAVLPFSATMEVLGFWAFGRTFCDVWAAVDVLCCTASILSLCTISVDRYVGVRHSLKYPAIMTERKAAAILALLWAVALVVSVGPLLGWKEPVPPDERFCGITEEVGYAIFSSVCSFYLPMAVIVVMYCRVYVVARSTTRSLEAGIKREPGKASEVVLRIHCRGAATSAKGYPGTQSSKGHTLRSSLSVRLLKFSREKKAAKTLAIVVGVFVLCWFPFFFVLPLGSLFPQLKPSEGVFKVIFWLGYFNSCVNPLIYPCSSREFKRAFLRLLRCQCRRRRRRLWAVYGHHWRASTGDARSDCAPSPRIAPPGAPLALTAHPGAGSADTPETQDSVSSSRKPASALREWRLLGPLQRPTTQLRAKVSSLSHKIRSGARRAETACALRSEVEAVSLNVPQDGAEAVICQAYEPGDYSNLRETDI
Source text: as §3

| Structure (SMILES) | pKi [1] | Selectivity α1B/α1A [1] | pKi [2] | Selectivity α1A/α1B [3] | Kb [3] [nM] | Kb [4] [nM] | Kb [5] [nM] | melting point [°C] | Selectivity α1A/α1D [3] |
| --- | --- | --- | --- | --- | --- | --- | --- | --- | --- |
| COc1ccc(F)cc1N1CCN(CCCN2C(=O)C3CC=CCC3C2=O)CC1.Cl (stereo not drawn) [Compound 08, 2-[3-{4-(2-Methoxy-5-fluorophenyl)piperazin-1-yl}propyl]-3a,4,7,7a-tetrahydro-1H-isoindole-1,3(2H)-dione hydrochloride] | 9.47 | 85 | 7.54 | 3.4 | 1.17 | 3.98 | 0.891 | 163 to 165 |  |
| CCc1ccccc1N1CCN(CCCN2C(=O)C3CC=CCC3C2=O)CC1.Cl (stereo not drawn) [Compound 09, 2-[3-{4-(2-Ethylphenyl)piperazin-1-yl}propyl]-3a,4,7,7a-tetrahydro-1H-isoindole-1,3(2H)-dione hydrochloride] | 9.52 | 207 | 7.21 | 23 | 0.676 | 15.8 | 2.51 | 232.5 to 233.5 | 3.6 |
| Cl.O=C1C2CC=CCC2C(=O)N1CCCN1CCN(c2ccccc2)CC1 (stereo not drawn) [Compound 13, 2-[3-{4-(Phenyl)piperazin-1-yl}propyl]-3a,4,7,7a-tetrahydro-1H-isoindole-1,3(2H)-dione hydrochloride] | 8.20 | 61 | 6.42 | 89 | 9.12 | 813 | 51.3 | 231 to 232 | 5.6 |
| COc1ccc(N2CCN(CCCN3C(=O)C4CC=CCC4C3=O)CC2)c(OC)c1.Cl (stereo not drawn) [Compound 21, 2-[3-{4-(2,4-Dimethoxyphenyl)piperazin-1-yl}propyl]-3a,4,7,7a-tetrahydro-1H-isoindole-1,3(2H)-dione hydrochloride] | < 6.30 | 1 | < 6.30 |  |  |  |  | 226 to 227 |  |
| Cc1cccc(C)c1N1CCN(CCCN2C(=O)C3CC=CCC3C2=O)CC1.Cl (stereo not drawn) [Compound 22, 2-[3-{4-(2,6-Dimethylphenyl)piperazin-1-yl}propyl]-3a,4,7,7a-tetrahydro-1H-isoindole-1,3(2H)-dione hydrochloride] | 6.68 | 2.4 | < 6.30 |  |  |  |  | 223 to 224 |  |
| COc1ccc(OC)c(N2CCN(CCCN3C(=O)C4CC=CCC4C3=O)CC2)c1.Cl (stereo not drawn) [Compound 26, 2-[3-{4-(2,5-Dimethoxyphenyl)piperazin-1-yl}propyl]-3a,4,7,7a-tetrahydro-1H-isoindole-1,3(2H)-dione hydrochloride] | 7.42 | 13 | < 6.30 |  |  |  |  | 193 to 195 |  |
| CC(C)(C)c1ccc(N2CCN(CCCN3C(=O)C4CC=CCC4C3=O)CC2)cc1.Cl (stereo not drawn) [Compound 27, 2-[3-{4-(4-tert-Butylphenyl)piperazin-1-yl}propyl]-3a,4,7,7a-tetrahydro-1H-isoindole-1,3(2H)-dione hydrochloride] | < 6.30 | 1 | < 6.30 |  |  |  |  | 264 to 265 |  |
| COc1cccc(O)c1N1CCN(CCCN2C(=O)C3CC=CCC3C2=O)CC1.Cl (stereo not drawn) [Compound 28, 2-[3-{4-(2-Methoxy-6-hydroxyphenyl)piperazin-1-yl}propyl]-3a,4,7,7a-tetrahydro-1H-isoindole-1,3(2H)-dione hydrochloride] | < 6.30 | 1 | < 6.30 |  |  |  |  | 267 to 268 |  |
| COc1ccccc1N1CCN(CC(C)CN2C(=O)C3CC=CCC3C2=O)CC1.Cl (stereo not drawn) [Compound 30, 2-[3-{4-(2-Methoxyphenyl)piperazin-1-yl}-2-methylpropyl]-3a,4,7,7a-tetrahydro-1H-isoindole-1,3(2H)-dione hydrochloride] | 7.32 | 13 | 6.21 |  |  |  |  | 184 to 185 |  |
| CCOc1ccccc1N1CCN(C(C)CCN2C(=O)C3CC=CCC3C2=O)CC1.Cl (stereo not drawn) [Compound 31, 2-[3-{4-(2-Ethoxyphenyl)piperazin-1-yl}-3-methylpropyl]-3a,4,7,7a-tetrahydro-1H-isoindole-1,3(2H)-dione hydrochloride] | 8.68 | 110 | 6.63 |  | 5.01 |  | 16.2 | 246 to 248 | 3.24 |
